Entries after “also recorded” stand apart in the source; their conditions may differ.
Legend:
Crohn's disease = details: single case; tranilast with enteral nutrients, low residue diet and mepenzolate bromide; cited from earlier work
[1] = test system: intestinal stricture associated with Crohn's disease; test: Effect of tranilast on progression of intestinal stricture in Crohn's disease patients, randomized against a group not given tranilast; type: in vivo, human (Crohn's disease patients)
Procedure: In 24 Crohn's disease patients with non-symptomatic intestinal stricture, the effect by tranilast on the progression of intestinal stricture associated with Crohn's disease was evaluated and compared between one group administered tranilast and another group not administered tranilast. There was no significant difference in backgrounds of the patients between the groups. The 24 patients were randomly divided into two groups consisting of a group administered tranilast (12 cases) and a group not administered tranilast (12 cases). […] The primary endpoint was a cumulative non-symptomatic stricture rate which was a rate of cases wherein severe symptomatic intestinal stricture requiring balloon dilatation or surgery occurred. In addition, the diameters of the stricture at the beginning of observation (basal diameter) and at the end of observation (final diameter) were measured. The secondary endpoint was a monthly progression rate of the stricture obtained from the rate of the final diameter relative to the basal diameter.

## COc1ccc(C=CC(=O)Nc2ccccc2C(=O)O)cc1OC [tranilast, N-(3,4-dimethoxycinnamoyl)anthranilic acid]
Crohn's disease
  period maintained without exacerbation of symptoms of Crohn's disease: 3 years
[1]; from the final diameter relative to the basal diameter, −0.86% in the group not given tranilast
  monthly progression rate of the stricture: -0.48%
[1]; group administered tranilast 200 mg three times daily, median observation 782 days
  average diameter of the stricture at the end of observation (final diameter): 5.60 mm
[1]; group administered tranilast, baseline
  average diameter of the stricture at the beginning of observation (basal diameter): 6.40 mm
[1]; of 12 cases, tranilast 200 mg three times daily
  cases withdrawn due to discontinued administration because of a reduced peripheral white blood cell count: 1 case
[1]; tranilast 200 mg three times daily orally, 12 cases, 5 cases in the group not given tranilast
  number of cases who required balloon dilatation due to severe intestinal stricture: 1 case
[1]; tranilast 600 mg per day versus the group not given tranilast, p=0.0034
  incidence of intestinal obstruction/stricture symptoms due to intestinal stricture (cumulative non-symptomatic stricture rate): significantly inhibited; also recorded: significantly low

Reference: US20100113597A1, “PHARMACEUTICAL COMPOSITION FOR PREVENTION OF PROGRESS OF INTESTINAL CONSTRICTION ASSOCIATED WITH CROHN'S DISEASE” (priority 2007, published 2010)
